From ChEMBL document CHEMBL4002642, “Design, synthesis and evaluation of antiproliferative activity of melanoma-targeted histone deacetylase inhibitors” (Bioorg Med Chem Lett, 2017) come the findings set out here.

By inhibition is commonly meant the change of the read-out against control, counted positive when it falls. By IC50 is commonly meant the midpoint of a concentration-inhibition curve.

For assay [1], the target named is T1, Protein deacetylase HDAC6 (Mus musculus) (UniProt Q9Z2V5).
T1 sequence (whole entry): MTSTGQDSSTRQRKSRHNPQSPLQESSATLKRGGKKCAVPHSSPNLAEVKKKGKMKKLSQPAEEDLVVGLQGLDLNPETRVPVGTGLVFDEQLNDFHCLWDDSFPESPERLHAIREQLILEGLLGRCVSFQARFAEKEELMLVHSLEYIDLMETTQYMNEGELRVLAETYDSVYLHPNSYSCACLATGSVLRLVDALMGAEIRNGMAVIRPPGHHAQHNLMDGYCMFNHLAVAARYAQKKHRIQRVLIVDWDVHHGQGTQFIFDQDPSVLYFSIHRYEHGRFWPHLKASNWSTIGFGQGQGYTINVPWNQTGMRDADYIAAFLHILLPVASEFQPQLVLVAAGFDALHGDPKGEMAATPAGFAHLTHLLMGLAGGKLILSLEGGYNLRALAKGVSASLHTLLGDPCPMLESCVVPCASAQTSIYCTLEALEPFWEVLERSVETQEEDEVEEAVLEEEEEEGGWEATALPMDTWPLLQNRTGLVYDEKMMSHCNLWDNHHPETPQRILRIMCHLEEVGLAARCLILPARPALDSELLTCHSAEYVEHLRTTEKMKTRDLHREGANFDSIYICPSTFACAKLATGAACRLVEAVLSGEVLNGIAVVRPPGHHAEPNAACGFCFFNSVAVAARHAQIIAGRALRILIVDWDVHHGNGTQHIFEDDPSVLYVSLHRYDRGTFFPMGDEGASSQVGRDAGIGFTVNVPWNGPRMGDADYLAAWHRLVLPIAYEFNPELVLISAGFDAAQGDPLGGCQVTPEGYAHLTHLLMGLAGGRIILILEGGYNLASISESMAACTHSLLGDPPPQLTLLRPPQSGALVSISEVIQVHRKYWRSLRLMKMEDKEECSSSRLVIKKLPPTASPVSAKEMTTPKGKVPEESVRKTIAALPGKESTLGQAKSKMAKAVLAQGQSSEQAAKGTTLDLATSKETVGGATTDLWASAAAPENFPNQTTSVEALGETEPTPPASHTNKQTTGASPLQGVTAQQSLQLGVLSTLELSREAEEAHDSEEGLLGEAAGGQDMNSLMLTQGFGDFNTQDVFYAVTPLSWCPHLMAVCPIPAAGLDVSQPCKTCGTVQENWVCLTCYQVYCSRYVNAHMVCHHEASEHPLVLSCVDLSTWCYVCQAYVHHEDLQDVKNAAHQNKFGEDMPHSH
Nature of the assay: Inhibition of HDAC6 in mouse B16F10 cells assessed as accumulation of acetylated tubulin at 20 uM after 24 hrs by Western blot analysis. Type of assay: cell-based. On the technique in general: In western blotting, separated proteins are transferred to a membrane and probed.

For the next assay, the system named is LNCaP. Nature of the assay: Cytotoxicity against human LNCAP cells assessed as growth inhibition after 72 hrs by MTS assay. Type of assay: functional, cell-based.
For the next assay, the system named is A-375. Nature of the assay: Cytotoxicity against human A375 cells assessed as growth inhibition after 72 hrs by MTS assay. Type of assay: functional, cell-based. The conditions noted are these: A-375, 72 h.
For assay [2], the target named is T2, Histone deacetylase 1 (Homo sapiens, UniProt Q13547). Nature of the assay: Inhibition of HDAC1 (unknown origin).
For assay [3], the system named is B16-F10. Nature of the assay: Cytotoxicity against mouse B16F10 cells assessed as growth inhibition after 72 hrs by MTS assay. It is filed as functional, cell-based. The conditions noted are these: B16-F10, 72 h. Background: Tetrazolium dyes change colour on reduction, which living cells bring about.
The target of assay [4] is T3, Protein deacetylase HDAC6 (Homo sapiens, UniProt Q9UBN7).
T3 sequence (Q9UBN7 whole entry): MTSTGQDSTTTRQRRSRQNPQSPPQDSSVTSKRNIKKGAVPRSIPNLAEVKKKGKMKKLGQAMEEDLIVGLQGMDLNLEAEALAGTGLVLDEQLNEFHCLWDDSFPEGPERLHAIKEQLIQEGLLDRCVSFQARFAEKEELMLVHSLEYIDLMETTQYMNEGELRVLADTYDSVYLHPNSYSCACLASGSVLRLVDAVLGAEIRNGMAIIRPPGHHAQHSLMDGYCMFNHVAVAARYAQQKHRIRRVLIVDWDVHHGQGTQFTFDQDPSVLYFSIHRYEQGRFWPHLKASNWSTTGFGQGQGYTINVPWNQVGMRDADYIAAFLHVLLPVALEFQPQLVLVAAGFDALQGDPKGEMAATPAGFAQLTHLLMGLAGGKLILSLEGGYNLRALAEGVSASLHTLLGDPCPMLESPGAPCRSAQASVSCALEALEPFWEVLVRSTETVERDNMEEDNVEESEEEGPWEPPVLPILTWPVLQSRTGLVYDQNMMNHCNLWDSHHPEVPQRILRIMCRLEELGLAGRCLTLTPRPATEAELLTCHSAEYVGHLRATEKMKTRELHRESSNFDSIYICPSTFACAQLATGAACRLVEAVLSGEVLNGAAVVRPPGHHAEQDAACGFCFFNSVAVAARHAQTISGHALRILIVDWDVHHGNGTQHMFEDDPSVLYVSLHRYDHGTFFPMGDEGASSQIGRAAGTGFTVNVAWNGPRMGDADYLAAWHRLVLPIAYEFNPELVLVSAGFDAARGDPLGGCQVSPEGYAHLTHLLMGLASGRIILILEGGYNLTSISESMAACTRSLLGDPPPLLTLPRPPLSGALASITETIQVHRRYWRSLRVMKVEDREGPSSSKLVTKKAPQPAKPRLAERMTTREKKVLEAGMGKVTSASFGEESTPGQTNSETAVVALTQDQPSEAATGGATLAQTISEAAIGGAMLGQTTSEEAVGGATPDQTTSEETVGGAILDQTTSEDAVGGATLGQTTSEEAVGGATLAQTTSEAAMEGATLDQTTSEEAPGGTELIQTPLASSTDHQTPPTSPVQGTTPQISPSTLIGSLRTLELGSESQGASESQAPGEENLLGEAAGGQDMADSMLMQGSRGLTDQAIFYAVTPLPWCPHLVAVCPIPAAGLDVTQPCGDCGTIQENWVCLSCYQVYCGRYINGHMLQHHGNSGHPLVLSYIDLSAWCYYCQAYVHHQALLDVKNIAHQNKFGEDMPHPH
Nature of the assay: Inhibition of HDAC6 (unknown origin).

Assay [5] has as its system B16-F10. Nature of the assay: Cytotoxicity against mouse B16F10 cells assessed as growth inhibition after 72 hrs in presence of verapamil by MTS assay. It is filed as functional, cell-based.
Assay [6] has as its target T1, Protein deacetylase HDAC6 (Mus musculus). Nature of the assay: Inhibition of HDAC6 in mouse B16F10 cells assessed as accumulation of acetylated tubulin at 5 to 50 uM after 24 hrs by Western blot analysis. It is filed as cell-based.
Assay [7] has as its system B16-F10. Nature of the assay: Cytotoxicity against mouse B16F10 cells assessed as growth inhibition at 25 to 50 uM after 72 hrs by MTS assay. Type of assay: functional, cell-based.
Assay [8] concerns the target T2, Histone deacetylase 1. Nature of the assay: Inhibition of HDAC1 (unknown origin) at 5 uM relative to control.
Assay [9] addresses T4, Protein deacetylase HDAC6 (Homo sapiens) (UniProt Q9UBN7).
T4 sequence (whole entry): T3 sequence (Q9UBN7 whole entry)
Nature of the assay: Inhibition of HDAC6 (unknown origin) at 5 uM relative to control.

Assay [10] concerns the target T5, Histone deacetylase 8 (Homo sapiens) (UniProt Q9BY41).
T5 sequence (whole entry): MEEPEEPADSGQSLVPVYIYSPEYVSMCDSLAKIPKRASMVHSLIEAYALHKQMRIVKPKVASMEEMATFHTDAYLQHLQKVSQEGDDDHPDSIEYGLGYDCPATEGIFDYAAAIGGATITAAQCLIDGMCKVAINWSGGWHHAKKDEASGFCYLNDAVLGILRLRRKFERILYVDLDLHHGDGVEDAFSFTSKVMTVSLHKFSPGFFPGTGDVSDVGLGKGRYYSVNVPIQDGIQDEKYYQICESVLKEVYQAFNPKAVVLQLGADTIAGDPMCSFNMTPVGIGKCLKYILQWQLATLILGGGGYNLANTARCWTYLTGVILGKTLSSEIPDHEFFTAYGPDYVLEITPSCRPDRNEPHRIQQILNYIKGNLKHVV
Nature of the assay: Inhibition of HDAC8 (unknown origin) at 5 uM relative to control.

Assay [11] deals with T1, Protein deacetylase HDAC6 (Mus musculus). Nature of the assay: Inhibition of HDAC6 in mouse B16F10 cells assessed as accumulation of acetylated tubulin after 24 hrs by Western blot analysis. It is filed as cell-based.

The source made the active and inactive calls. The rule behind the calls is not given here.

T2 sequence (Q13547 whole entry): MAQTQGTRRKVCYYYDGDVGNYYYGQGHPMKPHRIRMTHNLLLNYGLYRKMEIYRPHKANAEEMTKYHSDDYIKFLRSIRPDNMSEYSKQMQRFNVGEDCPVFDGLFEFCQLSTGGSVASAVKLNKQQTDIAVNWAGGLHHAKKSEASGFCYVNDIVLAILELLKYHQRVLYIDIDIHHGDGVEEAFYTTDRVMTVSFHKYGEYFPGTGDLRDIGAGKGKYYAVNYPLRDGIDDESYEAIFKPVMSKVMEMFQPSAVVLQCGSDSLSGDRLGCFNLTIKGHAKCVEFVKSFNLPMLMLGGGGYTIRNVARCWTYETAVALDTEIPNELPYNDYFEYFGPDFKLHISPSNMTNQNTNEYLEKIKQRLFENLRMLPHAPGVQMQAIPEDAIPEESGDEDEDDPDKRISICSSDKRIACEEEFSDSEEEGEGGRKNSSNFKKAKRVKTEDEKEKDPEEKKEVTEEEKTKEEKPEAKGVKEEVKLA

For `O=C(CCCCCCC(=O)Nc1ccccc1)NO`, the inhibition entry in assay [1] was “Active”.
Take `CCN(CC)CCNC(=O)c1ccc(-c2cn(CCCCCC(=O)NO)nn2)cn1`: the IC50 in the assay with LNCaP was 10.5 µM; in the assay with A-375, above 100 µM; at Histone deacetylase 1 [2] it was 0.1 µM; with B16-F10 [3], above 100 µM; in [4], 0.17 µM.
As for `CCN(CC)CCNC(=O)c1ccc(-c2cn(CCCCCCC(=O)NO)nn2)cc1`, the IC50 amounted to 1.2 µM with LNCaP; 23.6 µM in the assay with A-375; 0.0038 µM at Histone deacetylase 1 [2]; 34.2 µM in the assay with B16-F10 [3]; 0.016 µM in [4]. Also, in the assay on B16-F10 [5], the “growth inhibition (GI)” value was “inactive”. In addition, the inhibition entry in assay [6] is “Active”. The “growth inhibition (GI)” value in the assay with B16-F10 [7] was “Active”.
Regarding `CCN(CC)CCNC(=O)c1ccc(-c2cn(CCCCCCCC(=O)NO)nn2)cc1`, the IC50 with LNCaP is 3 µM; with A-375, above 100 µM; on Histone deacetylase 1 [2], 0.012 µM; in the assay on B16-F10 [3] it was 75.9 µM; in assay [4] it was 0.027 µM.
On to `CCN(CC)CCNC(=O)c1ccc(-c2cn(CCCCCCC(=O)NO)nn2)cn1`, for which the IC50 in the assay with LNCaP came out at 1.5 µM; in the assay on A-375, 47.2 µM; against Histone deacetylase 1 [2] it was 0.017 µM; in the assay on B16-F10 [3], 55.7 µM; in assay [4], 0.034 µM. In the assay on B16-F10 [5], the “growth inhibition (GI)” value is “inactive”.
As for `COc1ccc2cc(-c3cn(CCCCCC(=O)NO)nn3)ccc2c1`, the figures for the IC50 in the assay on LNCaP, with A-375 and with B16-F10 [3] were 5.1 µM, 12.6 µM and 10.5 µM, respectively. The inhibition entry in assay [1] is “Active”.
For the compound `CCN(CC)CCNC(=O)c1ccc(C(=O)ONC(=O)CCCCCn2cc(-c3ccc4cc(OC)ccc4c3)nn2)cc1`, the IC50 in the assay with LNCaP was found to be 6.46 µM; in the assay on A-375 it was 25.9 µM; with B16-F10 [3] it was 27.8 µM. Further, the inhibition against Histone deacetylase 1 [8] was 100%; in assay [9], 99%; in assay [10], 52%; in [11] it was “Dose-dependent effect”. Moreover, the “growth inhibition (GI)” value in the assay with B16-F10 [7] was “Active”.
